Laboratory results taken from patent US20240166636A1, “CRYSTALLINE COMPOUNDS AND METHODS OF MAKING THE SAME” (Epizyme, Inc., priority 2019, published 2024).

Key:
Assay type in all cases: physicochemical
[1] = Hygroscopicity (dynamic vapor sorption); settings: compared to other salt forms of Compound I
Description: Dynamic Vapor Sorption (DVS) was measured on a VTI Model SGA-100 system. Measurement method: The relative humidity (RH) was changed in a controlled fashion, in 5% steps from 5.0% to 95.0% then back to 5.0% using the gravimetric vapor sorption system, and the weight percentage change (wt. %) of the sample at each stage was measured.

[2] = Intrinsic dissolution rate of polymorphs
[3] = Competitive slurry experiments, thermodynamically most stable form; settings: 50/50% (w/w) mixture of Polymorph A and Polymorph B, slurried for several days, varying water content and temperature
Description: Several slurries were prepared, varying the water content and the temperature. […] As a result, the isolation temperature (e.g. in step b-2) was increased (e.g., from 15° C. to 22° C.) and the water content of the solvent system during the cooling crystallization was reduced (e.g., from 9.7% (v/v) to 9.0% (v/v)).

| SMILES | hygroscopicity [1] | Intrinsic Dissolution Rate (IDR) [2] [mg/min/cm^2] | % Rate relative to From A ([2]; IDR relative to Polymorph A) [%] | thermodynamically most stable form as a function of temperature and water content in the solvent [3] |
| --- | --- | --- | --- | --- |
| Br.CCN(c1cc(-c2ccc(CN3CCOCC3)cc2)cc(C(=O)NCc2c(C)cc(C)[nH]c2=O)c1C)C1CCOCC1 [Compound I hydrobromide, N-((4,6-dimethyl-2-oxo-1,2-dihydropyridin-3-yl)methyl)-5-(ethyl (tetrahydro-2H-pyran-4-yl)amino)-4-methyl-4′-(morpholinomethyl)-[1,1′-biphenyl]-3-carboxamide hydrobromide] | low hygroscopicity |  |  |  |
| CN(C)CCc1c[nH]c2cccc(OP(=O)(O)O)c12 [Polymorph A] |  | 7.6 | 100 | stable form at higher temperatures and lower water content |
